Measurements published in patent publication US11235059B2, “Afucosylated anti-FGFR2IIIB antibodies” (Five Prime Therapeutics, Inc., priority 2013, dated 2022).

Tests used:
[1] = system: FGFR2IIIb-expressing Ba/F3 cells; experiment: ADCC assay with human PBMC effectors, LDH release (Example 3); assay type: cell-based; settings: E/T 25:1, 16 hours
Experimental: Ba/F3 FGFR2IIIb-expressing target cells were produced as follows. Ba/F3 cells acquired from Leibniz-Institut DSMZ-Deutsche Sammlung von Mikroorganismen and Zellkulturen GmbH (DSMZ, cat #ACC300, Braunschweig, Germany) were maintained in RPMI (Mediatech, cat #10-041-CV, Manassas, Va.), supplemented with 10% fetal bovine serum (Mediatech, cat #35-010-CV), 1 ng/mL murine IL-3 (Peprotech, cat #213-13, Rocky Hill, N.J.), 1×BME (Invitrogen, cat #1047574, Grand Island, N.Y.), and 1× Penicillin-streptomycin (Mediatech cat #30-002-C1). […]
ADCC assays were conducted using effector cells from 3 independent donors on 3 different days. […] Cytotoxicity was determined by quantifying LDH release as per the manufacturer's instructions (CytoTox Non Radioactive Cytotoxicity Assay, Promega, Madison, Wis.).
(§1) Maximal lysis was determined in the presence of 5% Triton X-100, and spontaneous release was determined in the absence of antibody. Percentage of specific lysis was calculated as follows, as a percentage of maximal lysis less spontaneous release: (experimental−spontaneous release)/(maximal−spontaneous release)×100=% specific lysis

KATO III cells = experiment: as above; assay type: cell-based; settings: E/T 25:1, 16 hours; data not shown
Experimental: (§2) MFM-223 cells were obtained from the Health Protection Agency, UK; OCUM-2M cells were obtained from Osaka City University, Osaka, Japan; and KATO III cells were obtained from ATCC, Rockville, Md. All cells were cultured using standard methods. Freshly isolated PMBC from healthy donors were obtained from AllCells, Emeryville, Calif.
(§3) ADCC assays were conducted using effector cells from 3 independent donors on 3 different days. ADCC assay testing was performed using freshly isolated human PBMCs as effector cells at an effector to target (E/T) cell ratio of 25:1. The target cells were incubated for 16 hours in the presence of effectors and increasing concentrations of antibody. The ADCC assay was validated using 2 positive control antibodies, HERCEPTIN® on SKOV-3 target cells and RITUXIN® on Raji target cells. A fully human IgG1 negative control antibody (Eureka Therapeutics, Catalog ET901, Emeryville, Calif.) was used for non-specific cell cytotoxicity. Cytotoxicity was determined by quantifying LDH release as per the manufacturer's instructions (CytoTox Non Radioactive Cytotoxicity Assay, Promega, Madison, Wis.).
as §1

MFM 223 cells = experiment: as above; assay type: cell-based; settings: data not shown
Experimental: as §2, §3, §1

OCUM-2M cells [2] = experiment: as above; assay type: cell-based; settings: data not shown
Experimental: as §2, §3, §1

OCUM-2M cells [3] = experiment: ADCC assay, EC50 by curve fitting (Example 5); assay type: cell-based, human; settings: E:T 25:1, 16 hours, percent specific lysis
Experimental: (§4) Ba/F3 FGFR2IIIb-expressing target cells were generated as described before. OCUM-2M cells were obtained from Osaka City University, Osaka, Japan. All cells were cultured using standard methods. Freshly isolated PMBC from healthy donors were obtained from AllCells, Emeryville, Calif.
(§5) ADCC assays were conducted using freshly isolated human PBMCs as effector cells at an effector to target (E:T) cell ratio of 25:1. The target cells were incubated for 16 hours in the presence of effectors and increasing concentrations of antibody. All conditions were tested in triplicate. Cytotoxicity was determined by quantifying LDH release as per the manufacturer's recommendations (Promega's CytoTox Non-Radioactive Cytotoxicity Assay). For the OCUM-2M cells, maximal lysis was determined in the presence of 5% Triton X-100, and spontaneous release was determined in the absence of antibody. Percentage of specific lysis was calculated as a percentage of maximal lysis less spontaneous release, as follows: (experimental−spontaneous release)/(maximal−spontaneous release)×100=% specific lysis. GraphPad software curve-fitting analysis was used to obtain EC50 values.

[4] = system: Ba/F3 FGFR2IIIb-expressing target cells; experiment: ADCC assay, EC50 by curve fitting (Example 5); assay type: cell-based; settings: FIG. 9
Experimental: as §4, §5

[5] = system: OCUM-2M human gastric cancer xenograft with FGFR2 amplification; experiment: OCUM-2M gastric cancer xenograft model; assay type: in vivo, CB17 SCID mice; settings: for tumor response: 10 mg/kg intraperitoneal twice per week
Source text: Six week old female CB17 SCID mice were purchased from Charles River Laboratories (Wilmington, Mass.) and were acclimated for 1 week before the start of the study. Human gastric carcinoma cell line OCUM-2M or breast carcinoma cell line MFM-223 were used as the tumor models. OCUM-2M was purchased from Public University Corporation Osaka City University (OCU, Osaka, Japan), and MFM-223 was purchased from Culture Collections, Public Health England (98050130, HPA Culture Collections, Salisbury, UK). The cells were cultured for up to three passages in complete growth medium to expand for implantation. OCUM-2M and MFM-223 cells were cultured in Dulbecco's […] (DMEM) and Minimum Essential Medium (MEM), respectively. All medium was supplemented with 10% heat-inactivated Fetal Bovine Serum (FBS), 2 mM L-Glutamine, and Penicillin-Streptomycin solution. Cells were grown at 37° C. in a humidified atmosphere with 5% CO2.
When the cultured cells reached 85-90% confluence, cells were harvested and resuspended in cold Ca^2+ and Mg^2+ free phosphate buffered saline (PBS) containing 50% Matrigel (BD BioSciences, San Jose, Calif.). OCUM-2M cells were implanted subcutaneously over the right flank of the mice at 5×10^5 cells/100 μl/mouse. MFM-223 cells were implanted subcutaneously over the right flank of the mice at 5×10^5 cells/100 μl/mouse, and 0.72 mg 90-day release […] estradiol pellets (Innovative Research of America, Sarasota, Fla.) were inoculated subcutaneously into the right flank. Mice were monitored twice weekly following cell implantation for tumor growth. Tumor size was measured according to the formula: Tumor size (mm^3)=([…])/2. When MFM-223 tumors reached 80 mm^3 mice were sorted and randomized (n=10), and treatment was initiated. For OCUM-2M tumors, single therapy with anti-FGFR2b was initiated once tumors reached an average size of 100 mm^3, and combination therapy was initiated once tumors reached an average size of 250 mm^3.
(§6) Chemotherapeutic agents were administered via intraperitoneal injection twice per week at 12 mg/kg for paclitaxel, 2.3 mg/kg for fluorouracil (5-FU), and 33 mg/kg for cisplatin. Upon initiation of therapy, tumor sizes were measured in each mouse twice weekly. The length and width of each tumor was measured using calipers and the tumor size calculated according to the formula above. Mice were euthanized when the subcutaneous tumor volumes exceeded 2000 mm^3 or when the tumors became excessively necrotic.
Comparisons of tumor volume […] determined to be statistically significant if P<0.05. P-values were calculated using unpaired, two-tailed t-test analyses of the calculated tumor volumes on the final day upon which tumors were measured.

[6] = system: MFM-223 human breast cancer xenograft; experiment: MFM-223 breast cancer xenograft model; assay type: in vivo, CB17 SCID mice; settings: 5 mg/kg
Source text: Six week old female CB17 SCID mice were purchased from Charles River Laboratories (Wilmington, Mass.) and were acclimated for 1 week before the start of the study. Human gastric carcinoma cell line OCUM-2M or breast carcinoma cell line MFM-223 were used as the tumor models. OCUM-2M was purchased from Public University Corporation Osaka City University (OCU, Osaka, Japan), and MFM-223 was purchased from Culture Collections, Public Health England (98050130, HPA Culture Collections, Salisbury, UK). The cells were cultured for up to three passages in complete growth medium to expand for implantation. […]
When the cultured cells reached 85-90% confluence, cells were harvested and resuspended in cold Ca^2+ and Mg^2+ free phosphate buffered saline (PBS) containing 50% Matrigel (BD BioSciences, San Jose, Calif.). […] Mice were monitored twice weekly following cell implantation for tumor growth. Tumor size was measured according to the formula: Tumor size (mm^3)=(width (mm)×length (mm)^2)/2. […]
as §6, with “Mice were euthanized when the subcutaneous tumor volumes exceeded 2000 mm^3 or when the tumors became excessively necrotic.” left out

Row | Substance | specific lysis compared with αFGFR2bF [1] | ADCC activity compared with αFGFR2bF (KATO III cells) | ADCC activity compared with αFGFR2bF (MFM 223 cells; E/T 25:1, 16 hours) | maximal specific lysis compared with αFGFR2bF (MFM 223 cells) | ADCC activity compared with αFGFR2bF (OCUM-2M cells [2]; E/T 25:1, 16 hours) | maximal specific lysis compared with αFGFR2bF (OCUM-2M cells [2]) | EC50 (ADCC) (OCUM-2M cells [3]) | ADCC potency compared with αFGFR2bF [4] | final tumor size compared with αFGFR2bF ([5]; 3 mg/kg) | tumor growth compared with αFGFR2bF ([5]; 3 mg/kg) | tumor regression and durability compared with αFGFR2bF ([5]; 3 mg/kg) | durability of response compared with αFGFR2bF ([5]; 10 mg/kg) | final tumor size compared with αFGFR2bF ([5]; 10 mg/kg) | tumor response [5] | final tumor size ([5]; 1 to 5 mg/kg, higher doses more potent) | tumor growth suppression ([5]; 2, 1.5, and 1 mg/kg) | tumor growth suppression ([5]; 3 and 5 mg/kg) | tumor growth ([5]; all doses: 1, 1.5, 2, 3, or 5 mg/kg, start at about 100 mm^3) | final tumor size compared to albumin control [6] | tumor growth compared to albumin control ([6]; start at about 80 mm^3)
1 | αFGFR2bA: afucosylated humanized anti-FGFR2IIIb monoclonal antibody produced in Potelligent CHOK1SV cells; heavy chain SEQ ID NO: 2, light chain SEQ ID NO: 3 | greater specific lysis | greater ADCC activity at lower concentrations | greater ADCC activity at lower concentrations | comparable | greater ADCC activity at lower concentrations | comparable | 0.005 µg/mL | higher potency | notably reduced final OCUM-2M tumor size | reduced tumor growth | greater tumor regression and durable response | more durable response | significantly reduced final OCUM-2M tumor size | immediate tumor regression | reduced final OCUM-2M tumor size | reduced growth suppression | greatest suppression and durable response | inhibited tumor growth | significantly reduced final MFM-223 tumor size | dramatically reduced growth of MFM-223 tumors
2 | αFGFR2bF: fucosylated anti-FGFR2IIIb humanized antibody with the same amino acid sequences as αFGFR2bA, produced in CHOK1SV cells [reference compound] | – | – | – | – | – | – | 0.03 µg/mL | – | – | – | – | – | – | immediate tumor regression | – | – | – | – | – | –
